# According to the NIST ThermoML archive (doi:10.1016/j.jct.2005.03.007):
# ± gives the expanded uncertainty stated by the source.
# Assay: Solid-liquid equilibrium temperature
# Conditions: Crystal
smiles,measurement,setting,value
c1ccccc1 [benzene],Solid-liquid equilibrium temperature,"53620 kPa, pressure-volume curve discontinuity",293.15 ± 0.65 K
same,Solid-liquid equilibrium temperature,"92220 kPa, pressure-volume curve discontinuity",303.15 ± 0.99 K
same,Solid-liquid equilibrium temperature,"133290 kPa, pressure-volume curve discontinuity",313.15 ± 1.3 K
same,Solid-liquid equilibrium temperature,"176820 kPa, pressure-volume curve discontinuity",323.15 ± 1.6 K
same,Solid-liquid equilibrium temperature,"222810 kPa, pressure-volume curve discontinuity",333.15 ± 1.9 K
same,Solid-liquid equilibrium temperature,"271270 kPa, pressure-volume curve discontinuity",343.15 ± 2.2 K
same,Solid-liquid equilibrium temperature,"322200 kPa, pressure-volume curve discontinuity",353.15 ± 2.6 K
CCCCCCCCCCCCCCCC [hexadecane],Solid-liquid equilibrium temperature,"9210 kPa, pressure-volume curve discontinuity",293.15 ± 0.3 K
same,Solid-liquid equilibrium temperature,"50650 kPa, pressure-volume curve discontinuity",303.15 ± 0.58 K
same,Solid-liquid equilibrium temperature,"95560 kPa, pressure-volume curve discontinuity",313.15 ± 0.9 K
same,Solid-liquid equilibrium temperature,"143920 kPa, pressure-volume curve discontinuity",323.15 ± 1.2 K
same,Solid-liquid equilibrium temperature,"195740 kPa, pressure-volume curve discontinuity",333.15 ± 1.5 K
same,Solid-liquid equilibrium temperature,"251030 kPa, pressure-volume curve discontinuity",343.15 ± 1.9 K
CCCCCCCCCCCCCCCCCC [octadecane],Solid-liquid equilibrium temperature,"8860 kPa, pressure-volume curve discontinuities",303.15 ± 0.3 K
same,Solid-liquid equilibrium temperature,"49600 kPa, pressure-volume curve discontinuities",313.15 ± 0.57 K
same,Solid-liquid equilibrium temperature,"94900 kPa, pressure-volume curve discontinuities",323.15 ± 0.88 K
same,Solid-liquid equilibrium temperature,"144780 kPa, pressure-volume curve discontinuities",333.15 ± 1.2 K
same,Solid-liquid equilibrium temperature,"199220 kPa, pressure-volume curve discontinuities",343.15 ± 1.5 K
same,Solid-liquid equilibrium temperature,"258230 kPa, pressure-volume curve discontinuities",353.15 ± 1.8 K
